Results published in patent US20260285853A1, “COMPOUNDS AND METHODS FOR MODULATING SPLICING” (REMIX THERAPEUTICS INC., priority 2023, published 2026).

What was measured:
Assay type in all cases: cell-based
HTT mRNA [1] = assay: Splicing RT-qPCR assay, canonical (CJ) and alternative (AJ) junction mRNA, K562 cells; settings: Homo sapiens, K562.3 cells, 24 hours; for AC50: read-out: HTT AJ (AC50, increase in AJ mRNA); for IC50: read-out: HTT CJ (IC50, decrease in CJ mRNA)
Outline: (§1)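 Readout is one-step RT-qPCR of canonical and alternative exon junctions, housekeeper-normalized (GAPDH or GUSB), ΔΔCt against DMSO giving RQ and percentage response over set ΔCt assay windows. Compounds dosed 24 h to K562 cells, 11 points, 3-fold, max 10 uM, DMSO ≤0.25%.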

MYB mRNA [2] = assay: as above; settings: Homo sapiens, K562.3 cells, 24 hours; for AC50: read-out: MYB AJ (AC50, increase in AJ mRNA); for IC50: read-out: MYB CJ (IC50, decrease in CJ mRNA)
Outline: as §1

[3] = tested on: SH-SY5Y (human neuroblastoma) cells; assay: Cell viability, Cell Titer Glo 2.0 assay; settings: read-out: Viability SHSY5Y.3 GI50
Outline: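 Viability was read by CellTiter-Glo 2.0 luminescence after a 72-hour compound exposure at 37° C. under 5% CO2. Cells were in IMDM plus 10% FBS containing 0.1% DMSO, and medium-only wells gave the blank.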

MYB mRNA [4] = assay: Splicing RT-qPCR assay (THP), Table 2A; settings: Table 2A (THP); for AC50: AJ mRNA increase, read-out: MYB AJ (increase in alternative junction mRNA, AC50); for IC50: CJ mRNA decrease, read-out: MYB CJ (decrease in canonical junction mRNA, IC50)
HTT mRNA [5] = assay: Gene panel canonical junction qPCR assay, decrease in CJ mRNA, Table 3; settings: decrease in canonical junction (CJ) mRNA, gene panel qPCR, Table 3
Outline: (§2)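 IC50 denotes the concentration giving 50% decrease in canonical-junction mRNA, fitted by 4-parameter logistic to percentage response derived from ΔΔCt versus housekeeping gene and DMSO control. Cells (A673 or K562) exposed 24 h to 11-point 3-fold serial dilutions from 10 uM top, DMSO ≤0.25%; junction-spanning primer/probe qPCR.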

SMN2 mRNA = assay: as above; settings: decrease in canonical junction (CJ) mRNA, gene panel qPCR, Table 3
Outline: as §2

MYB mRNA [6] = assay: as above; settings: decrease in canonical junction (CJ) mRNA, gene panel qPCR, Table 3
Outline: as §2

| SMILES | IC50 (HTT mRNA [1]) | IC50 (MYB mRNA [2]) | GI50 [3] | IC50 (MYB mRNA [4]) | IC50 (HTT mRNA [5]) | IC50 (SMN2 mRNA) | IC50 (MYB mRNA [6]) | AC50 (HTT mRNA [1]) | AC50 (MYB mRNA [2]) | AC50 (MYB mRNA [4]) |
| --- | --- | --- | --- | --- | --- | --- | --- | --- | --- | --- |
| CCN[C@H]1CCN(c2cc(O)c(C(=O)Nc3cc(F)c4nc(C)cn4c3)c3nn(C)cc23)C1 [Compound 143, 4-[(3S)-3-(ethylamino)pyrrolidin-1-yl]-N-(8-fluoro-2-methyl-imidazo[1,2-a]pyridin-6-yl)-6-hydroxy-2-methyl-indazole-7-carboxamide] | 1000 to 10000 nM | < 100 nM | 100 to 1000 nM | < 100 nM | 1000 to 10000 nM | < 100 nM | < 100 nM | 1000 to 10000 nM | < 100 nM | < 100 nM |
| Cc1cn2cc(NC(=O)c3ccc(N4CC[C@H](NCC(C)(C)O)C4)c4cn(C)nc34)cc(F)c2n1 [Compound 132, N-(8-fluoro-2-methyl-imidazo[1,2-a]pyridin-6-yl)-4-[(3S)-3-[(2-hydroxy-2-methylpropyl)amino]-pyrrolidin-1-yl]-2-methyl-indazole-7-carboxamide] | 1000 to 10000 nM | 100 to 1000 nM | 1000 to 10000 nM | 100 to 1000 nM | 1000 to 10000 nM | < 100 nM | 100 to 1000 nM | > 10000 nM | 100 to 1000 nM | 100 to 1000 nM |
| CCNC1CCN(c2cc(F)c(C(=O)Nc3cc(F)c4nc(C)cn4c3)c3[nH]ncc23)CC1 [Compound 174, 4-[4-(ethylamino)-1-piperidyl]-6-fluoro-N-(8-fluoro-2-methyl-imidazo-[1,2-a]pyridin-6-yl)-1H-indazole-7-carboxamide] | 1000 to 10000 nM | 100 to 1000 nM | 100 to 1000 nM | 100 to 1000 nM | 1000 to 10000 nM | < 100 nM | 100 to 1000 nM | 1000 to 10000 nM | 100 to 1000 nM | < 100 nM |
| Cc1cn2cc(C(=O)Nc3c(F)cc(N4CCNCC4)c4cn[nH]c34)cc(F)c2n1 [Compound 267] | > 10000 nM | > 10000 nM | > 10000 nM | > 10000 nM | > 10000 nM | > 10000 nM | > 10000 nM | > 10000 nM | > 10000 nM | > 10000 nM |

Further lines, with some results ahead:

| IC50 (HTT mRNA [1]) | IC50 (MYB mRNA [2]) | GI50 [3] | IC50 (MYB mRNA [4]) | IC50 (HTT mRNA [5]) | IC50 (SMN2 mRNA) | IC50 (MYB mRNA [6]) | SMILES | AC50 (HTT mRNA [1]) | AC50 (MYB mRNA [2]) | AC50 (MYB mRNA [4]) |
| --- | --- | --- | --- | --- | --- | --- | --- | --- | --- | --- |
| 100 to 1000 nM | < 100 nM | 100 to 1000 nM | < 100 nM | 100 to 1000 nM | < 100 nM | < 100 nM | COC1CC(N[C@H]2CCN(c3ccc(C(=O)Nc4cc(F)c5nc(C)cn5c4)c4nn(C)cc34)C2)C1 (stereo partly drawn) [Compound 268, N-(8-fluoro-2-methyl-imidazo[1,2-a]pyridin-6-yl)-4-[(3S)-3-[(3-methoxy-cyclobutyl)amino]pyrrolidin-1-yl]-2-methyl-indazole-7-carboxamide] | 1000 to 10000 nM | 100 to 1000 nM | < 100 nM |
| 1000 to 10000 nM | 100 to 1000 nM | 1000 to 10000 nM | 100 to 1000 nM | 1000 to 10000 nM | < 100 nM | 100 to 1000 nM | Cc1cn2cc(NC(=O)c3ccc(N4CCC5NCCC5C4)c4cn(C)nc34)cc(F)c2n1 (stereo not drawn) [Compound 169, N-(8-fluoro-2-methyl-imidazo[1,2-a]-pyridin-6-yl)-2-methyl-4-(octahydro-pyrrolo[3,2-c]pyridin-5-yl)indazole-7-carboxamide 2,2,2-trifluoroacetate] | 1000 to 10000 nM | 100 to 1000 nM | < 100 nM |
